Results reported in patent US11179385B2 (THE TRUSTEES OF THE UNIVERSITY OF PENNSYLVANIA, priority 2015, dated 2021).

Tests used:
[1] = system: nevus-like pigmented tumors in Tyr::creER, BRAF^ca mice; test: Topical resiquimod gel on pigmented tumor progression in Tyr::creER, BRAFca mice (nevus model); format: in vivo, mouse
Experimental: FIGS. 1A-1I. […] FIG. 1A) Treatment scheme. […] FIG. 1D) Pigmented lesion in a mouse before treatment. […] FIG. 1F) Histology of tumor treated with vehicle. […] Bars in b-e indicate 6 mm. Bars in f-h indicate 200 μm.
A majority of nevi and melanomas contain BRAF mutations, particularly the BRAFV600E mutation.
Mice treated with blank topical gel were used as controls. […] Tumor diameters were measured using calipers every three days.

[2] = system: B16-F10 melanoma cells in C57BL/6J mice; test: Topical resiquimod gel in the B16 melanoma model; format: in vivo, mouse
Excerpt: FIGS. 5A-5E. […] FIG. 5A) Treatment scheme. […] Arrow points to the inflammatory cells. FIG. 5E) Fold changes in cytokine and chemokine mRNA expression in the tumor tissues from treated mice compared to control mice. *indicates p<0.05. Bars in d indicate 25 μm.
Tumor tissues were processed and we measured cytokine and chemokine mRNA expression in the tumor using qRT-PCR.

[3] = system: T cells from spleen; test: Cytokine release by T cells from spleen after stimulation; format: cell-based, mouse; settings: resiquimod treated T cells from spleen
Experimental: (§1) Once these mice developed palpable tumors, resiquimod treatment was administered twice a week. […] CD8 depletion was achieved using anti-CD8 antibody. […]

[4] = system: T cell activation; cytokine induction; settings: cited from earlier work
[5] = Stability and solubility of resiquimod in ethanol:PBS topical formulation (HPLC); format: physicochemical; settings: 50:50 ethanol:pbs topical formulation aged for 2 weeks
[6] = system: B16-F10 melanoma cells in RAG-1-deficient mice; test: Resiquimod gel in RAG-1-deficient mice with B16-F10 melanoma; format: in vivo, mouse
Experimental: as §1

[7] = system: melanoma in Tyr::creER, BRAF^ca, Phd2^lox/lox mice; test: Topical resiquimod on melanoma progression in Tyr::creER, BRAFca, Phd2lox/lox mice; format: in vivo, mouse; settings: topical 0.2% twice a week for 6 weeks
Excerpt: FIGS. 2A-2L. […] FIG. 2A) Treatment scheme. FIG. 2B) Large tumor in a mouse treated with vehicle (n=10). FIG. 2C) Underside of skin filled with tumor. FIGS. 2D and 2E) Histology of melanoma in a control mouse. The dermis is filled with tumor cells. […] FIG. 2G) Underside of skin cleared of tumor. FIG. 2H) Histology of skin in a treated mouse, normal appearing. FIG. 2I) Macrophages with pigment are present in the dermis in a treated mouse. Arrow points to macrophages. FIG. 2J)Tumor growth curve. FIG. 2K) In situ melanoma in control mice. Arrows point to the tumor cells in the epidermis and hair follicle. I) Normal appearing epidermis in treated mice. *indicates p<0.05. Bars in b, c, f and g indicate 6 mm. Bars in d, e, h and I, indicate 200 μm. Bars in k and l indicate 10 μm.
The Tyr:creER, BRAF^ca, phd2^lox/lox mouse melanoma model was developed in Dr. Xu's lab. Melanoma can be induced with 100% penetrance using topical 4-HT. Lymph node metastasis is frequent in these mice. […] The melanoma in control mice grew and the tumor became very big at day 180 (FIG. 2B). These mice were sacrificed. The underside of skin was occupied completely by tumor (FIG. 2C). Histologically, the dermis was filled entirely by melanoma cells (FIG. 2D and FIG. 2E). […] Histologically, dermal melanoma had regressed (FIG. 2H) and numerous macrophages with pigment were present in the dermis (FIG. 2I), indicating melanoma has regressed. None of the treated mice developed lymph node metastasis.

[8] = system: melanoma in Tyr::creER, BRAF^ca, Pten^lox/lox mice; test: Topical resiquimod gel on melanoma progression in Tyr::creER, BRAFca, Ptenlox/lox mice; format: in vivo, mouse
Excerpt: FIGS. 3A-3I. […] FIG. 3A) Treatment scheme. FIG. 3B) Representative image of a mouse with control treatment (n=15). […] FIG. 3D) Histology of melanoma in a control mouse. […] FIG. 3E) Histology of melanoma in a treated mouse. […] Bars indicate 6 mm in FIG. 3B and FIG. 3C, 400 μm in FIG. 3D and FIG. 3E and 50 μm in FIG. 3H and FIG. 3I.
FIGS. 4A-4I. […] FIG. 4A) Treatment scheme. […] All measurement was compared to the control. *indicates p<0.05.
Tumor and spleen tissues were processed and multicolor flow cytometry analysis was performed.

[9] = system: melanoma in Tyr::creER, BRAF^ca, Pten^lox/lox mice; test: Resiquimod in combination with anti-PD1 therapy in Tyr::creER, BRAFca, Ptenlox/lox mice; format: in vivo, mouse; settings: 0.2% resiquimod twice a week for 6 weeks; anti-PD1 200 μg i.p. twice a week for 5 weeks
Excerpt: FIGS. 7A-7G. […] FIG. 7A) Treatment scheme. […] FIG. 7F) Effect of therapies on melanoma growth (n=5 each group). FIG. 7G) Effect of therapies on lymph node metastasis. *indicates p<0.05. **indicates p<0.01. Bars indicate 6 mm.

[10] = system: B16-F10 melanoma cells in CD8 depleted C57 mice; test: Resiquimod gel in CD8 depleted C57 mice with B16-F10 melanoma; format: in vivo, mouse
Experimental: as §1

[11] = 0.2% resiquimod gel twice a week
[12] = qRT-PCR, compared to control mice
[13] = treated 3 weeks, flow cytometry of tumor

SMILES: CCOCc1nc2c(N)nc3ccccc3c2n1CC(C)(C)O [resiquimod, 1-[4-amino-2-(ethoxymethyl)imidazo[4,5-c]quinolin-1-yl]-2-methylpropan-2-ol]
- pigmented lesion growth (tumor diameter) ([1]; 0.2% resiquimod topical gel twice a week for six weeks vs blank gel): regressed
- histology: pigmented tumor cells in the dermis ([1]; 0.2% topical gel twice a week for six weeks): disappeared
- pigmented tumor cells in the epidermis ([1]; 0.2% topical gel twice a week for six weeks, data not shown): regressed completely
- palpable pigmented lesion after treatment ([1]; different experiment, topical resiquimod for 1 month): disappeared after treatment
- histology: inflammatory cells in the tumor [2, 11]: more inflammatory cells
- lifespan (survival) of treated mice [2, 11]: prolonged the lifespan
- melanoma growth [2, 11]: significantly slowed the melanoma growth
- CCL2 mRNA expression in the tumor [2, 12]: increased
- INF-γ mRNA expression in the tumor [2, 12]: increased
- TNF-α mRNA expression in the tumor [2, 12]: increased
- expression of IFN-γ by T cells after stimulation [3]: increased expression
- induction of IFN-α, TNF-α, IL-1, IL-6, IL-8 and IL-12 compared with imiquimod [4]: more potent inducer
- solubility in base formulation [5]: soluble
- effect on melanoma growth ([6]; RAG-1-deficient mice, resiquimod gel twice a week): little effect
- effect of resiquimod on survival curves ([6]; Rag-1-deficient mice): abolished
- histology: dermal melanoma [7]: regressed
- melanoma cells in the epidermis (in situ melanoma) [7]: disappeared after treatment
- treated mice that developed lymph node metastasis [7]: None
- tumor on underside of skin [7]: significantly less tumors
- melanoma growth ([7]; started 140 days after induction): inhibited
- melanoma growth (tumor volume) ([8]; resiquimod gel twice a week for 6 weeks vs control vehicle): significantly slowed melanoma growth
- tumor thickness ([8]; treated 3 weeks): significantly thinner tumors
- CD45+CD11B+F4/80-Ly6g high MDSCs in the tumor [8, 13]: decrease
- PD1+CD8+ T cells [8, 13]: significantly increased
- expression of granzyme B in CD8^- T cells [8, 13]: increased
- intratumoral CD45+ inflammatory cells [8, 13]: significant increase
- number of GranB+CD8+ T cells [8, 13]: increased
- number of GranB+CD8+Ki-67+ T cells [8, 13]: increased
- mice that developed lymph node metastasis ([8]; treated 3 weeks, sacrificed on treatment, control: all 5 mice): 2 of 5
- positive lymph nodes per mouse with metastasis ([8]; treated 3 weeks, control 2-4 per mouse): 1
- histology: infiltration of melanoma through skeletal muscle ([8]; twice a week for 6 weeks): did not infiltrate through the skeletal muscle
- in situ melanoma in the epidermis ([8]; twice a week for 6 weeks): disappeared after treatment
- lifespan (survival) of treated mice ([8]; twice a week for 6 weeks): prolonged the lifespan
- lymph node metastasis (number of positive lymph nodes) [9]: significantly reduced
- melanoma growth (tumor volume) [9]: significantly slowed melanoma growth
- effect of resiquimod on survival curves ([10]; CD8-depleted mice): abolished
- effect on melanoma ([10]; CD8 T cell depleted mice (anti-CD8 antibody), resiquimod twice a week): little effect
